Source: patent US5814649A, “Preventive and remedy for type 1 allergic diseases” (priority 1994, dated 1998)

How the values were obtained:
[1] = test system: OVA-sensitized rat anaphylactic models; experiment: Survival of OVA-sensitized BN rats after anaphylactic shock induced by OVA (Example 1); assay type: in vivo, BN/Crj rats (female); conditions: for Survival Rate: day 0 to 9, OVA challenge day 10
Experimental: (§1) Using female BN/Crj rats of 7 weeks old, sensitization by OVA was carried out as described below.
(§2) 10 mg/kg of OVA and 300 mg/kg of aluminum hydroxide (Alum) were intraperitoneally given (10 ml/kg) on the day (day 0) of administration. On day 3, 7 and 9 after the sensitization, blood samples were collected, the serum was separated and IgE concentration was determined. On day 10 after the sensitization, 60 mg/kg of OVA dissolved in physiological saline was given to the rats from the tail vein to cause anaphylactic shock. On the other hand, blood samples were collected at the jugular vein before and after the induction of the anaphylactic shock by OVA, and, after separation of the plasma, histamine level was determined.
(§3) The drug suspended in 1% carboxymethylcellulose (CMC) was repeatedly given orally once a day from day 0 to 9. […] All animals in each group were weighed in the morning once a week and the drug was given upon the body weights as weighed. To the solvent control group was given a 1% CMC solution. And further, non-medicated groups and non-treated groups were prepared. No treatment was applied to the non-treated group. The test was carried out using 6 rats per group.
(§4) The effect of the anilide compounds (I) on BN rats was evaluated from the survival rates of BN rats, the IgE levels in the sera and the histamine levels in the plasma before and after the induction of anaphylactic shock by OVA.

IgE [2] = experiment: Serum IgE level of OVA-sensitized BN rats by sandwich-type ELISA (Example 1); assay type: in vivo, BN/Crj rats (female); conditions: day 9 after OVA sensitization, mean ± SD
Experimental: as §1, §2, §3, §4
The IgE level in sera was determined using the homemade sandwich-type ELISA system.

histamine = experiment: Plasma histamine level before and after induction of anaphylactic shock by OVA (Example 1); assay type: in vivo, BN/Crj rats (female); conditions: 10 mg/kg orally once a day, ± SD; for Histamine amount, after OVA challenge: day 10, after OVA challenge; for Histamine amount, before OVA challenge: day 10, before OVA challenge
Experimental: as §1, §2, §3
Then, the plasma histamine levels before and after the induction of the anaphylactic shock by OVA on day 10 after OVA sensitization were determined as a parameter for allergic reactions.

[3] = test system: autoimmune diseases such as articular rheumatism, systemic lupus erythematosus and the like; conditions: diseased animal models; cited from earlier work
[4] = test system: OVA-sensitized rat anaphylactic models; experiment: Minimum effective dose of leflunomide: survival of OVA-sensitized BN rats after anaphylactic shock (Example 2); assay type: in vivo, BN/Crj rats (female); conditions: for Survival Rate: day 0 to 9
Experimental: (§5) Using female BN/Crj rats of 7 weeks old, sensitization by OVA was carried out as described below. 10 mg/kg of OVA and 300 mg/kg of aluminum hydroxide (Alum) were intraperitoneally given on the day (day 0) of administration. Blood samples were collected on day 3, 5, 7 and 9 after the sensitization, the serum was separated and IgE concentration was determined. And, 60 mg/kg of the OVA dissolved in physiological saline was given to the rats from the tail vein to cause anaphylactic shock.
(§6) The drug suspended in 1% carboxymethylcellulose (CMC) was repeatedly given orally once a day from day 0 to 9. […] All animals in each group were weighed in the morning once a week and the drug was given upon the body weights as weighed. A 1% CMC solution was given to the solvent control group. And further, non-treated group was prepared as control to which no treatment was applied. The test was carried out using 6 rats per group.

IgE [5] = experiment: Minimum effective dose of leflunomide: serum IgE level of OVA-sensitized BN rats (Example 2); assay type: in vivo, BN/Crj rats (female); conditions: for Serum IgE amount: day 9 after OVA, ± SD
Experimental: as §5, §6

[6] = after administration; cited from earlier work
mast cells = conditions: cited from earlier work
mice = conditions: cited from earlier work
[7] = leflunomide 0.5 mg/kg orally once a day
[8] = leflunomide 1 mg/kg orally once a day
[9] = leflunomide 2 mg/kg orally once a day

C/C(O)=C(\C#N)C(=O)Nc1ccc(C(F)(F)F)cc1 [Compound A, N-(4-trifluoromethylphenyl)-2-cyano-3-hydroxy-crotonamide]
Survival Rate ([1]; 10 mg/kg orally once a day): 33%
IgE amount in sera (IgE [2]; 10 mg/kg orally once a day): 0.3 ± 0.0 µg/mL
Histamine amount, after OVA challenge (histamine): 0.1 ± 0.0 µM
Histamine amount, before OVA challenge (histamine): 0.2 ± 0.1 µM
effect on autoimmune diseases [3]: have an effect on autoimmune diseases such as articular rheumatism, systemic lupus erythematosus and the like

Cc1cc(NC(=O)C(C#N)C(=O)C2CC2)ccc1C(F)(F)F (centres unmarked) [Compound B, 1-(3-methyl-4-trifluoromethylphenylcarbamoyl)-2-cyclopropyl-2-oxo-propionitrile]
Survival Rate ([1]; 10 mg/kg orally once a day): 100%
IgE amount in sera (IgE [2]; 10 mg/kg orally once a day): 0.6 ± 0.5 µg/mL
Histamine amount, after OVA challenge (histamine): 1.3 ± 1.8 µM
Histamine amount, before OVA challenge (histamine): 0.4 ± 0.1 µM

CN(C(=O)C(C#N)C(=O)C1CC1)c1ccc(Cl)cc1 (centres unmarked) [Compound C, 2-cyano-3-cyclopropyl-3-oxo-N-methyl-N-(4-chlorophenyl)-propionamide]
Survival Rate ([1]; 10 mg/kg orally once a day): 100%
IgE amount in sera (IgE [2]; 10 mg/kg orally once a day): 0.5 ± 0.1 µg/mL
Histamine amount, after OVA challenge (histamine): 0.1 ± 0.0 µM
Histamine amount, before OVA challenge (histamine): 0.3 ± 0.2 µM

N#Cc1ccc(NC(=O)C(C#N)C(=O)C2CC2)cc1 (centres unmarked) [Compound D, 2-cyano-3-cyclopropyl-3-oxo-(4-cyanophenyl) propionamide]
Survival Rate ([1]; 10 mg/kg orally once a day): 100%
IgE amount in sera (IgE [2]; 10 mg/kg orally once a day): 0.6 ± 0.1 µg/mL
Histamine amount, after OVA challenge (histamine): 0.6 ± 0.5 µM
Histamine amount, before OVA challenge (histamine): 0.4 ± 0.2 µM

C#CCCC(=O)C(C#N)C(=O)Nc1ccc(C(F)(F)F)cc1 (centres unmarked) [Compound E, 2-cyano-3-oxo-N-[4-(trifluoromethyl)phenyl]-6-heptinamide]
Survival Rate ([1]; 10 mg/kg orally once a day): 100%
IgE amount in sera (IgE [2]; 10 mg/kg orally once a day): 0.4 ± 0.1 µg/mL
Histamine amount, after OVA challenge (histamine): 0.1 ± 0.0 µM
Histamine amount, before OVA challenge (histamine): 0.3 ± 0.1 µM

Cc1oncc1C(=O)Nc1ccc(C(F)(F)F)cc1 [Leflunomide, 5-methylisoxazole-4-carboxylic acid-N-(4-trifluoromethyl) anilide]
survival without anaphylactic shock ([1]; 2 mg/kg): all animals survived without any anaphylactic shock
Survival Rate ([1]; 2 mg/kg orally once a day): 100%
IgE amount in sera (IgE [2]; 2 mg/kg orally once a day): 0.4 ± 0.1 µg/mL
IgE amount in sera (IgE [2]; 2 mg/kg orally once a day, listed as leflunomide): 0.4 µg/mL
Survival Rate [4, 7]: 0%
survival without anaphylactic shock ([4]; leflunomide 1 mg/kg): all animals survived without any anaphylactic shock
Survival Rate [4, 8]: 100%
survival without anaphylactic shock ([4]; leflunomide 2 mg/kg): all animals survived without any anaphylactic shock
Survival Rate [4, 9]: 100%
inhibition of increase in serum IgE level (IgE [5]; after antigen sensitization): can inhibit an increase in the serum IgE level after the antigen sensitization
Serum IgE amount (IgE [5]; [7]): 357.7 ± 119.0 µg/mL
Serum IgE amount (IgE [5]; leflunomide 0.5 mg/kg orally once a day, listed as leflunomide): 357.7 µg/mL
Serum IgE amount (IgE [5]; [8]): 0.8 ± 0.1 µg/mL
Serum IgE amount (IgE [5]; leflunomide 1 mg/kg orally once a day, listed as leflunomide): 0.8 µg/mL
Serum IgE amount (IgE [5]; [9]): 0.4 ± 0.1 µg/mL
Serum IgE amount (IgE [5]; leflunomide 2 mg/kg orally once a day, listed as leflunomide): 0.4 µg/mL
conversion to pharmacologically active Compound A [6]: converted to pharmacologically active Compound A as defined above by rapid metabolism after administration
inhibitory effect on histamine-release from mast cells (mast cells): has an inhibitory effect on histamine-release from mast cells
effect on autoimmune diseases [3]: have an effect on autoimmune diseases such as articular rheumatism, systemic lupus erythematosus and the like
LD50 (p.o.) (mice): 445 mg/kg

C[C@]12C=CC(=O)C=C1CC[C@@H]1[C@@H]2[C@@H](O)C[C@@]2(C)[C@H]1CC[C@]2(O)C(=O)CO [Prednisolone]
Survival Rate ([1]; 2 mg/kg orally once a day): 0%
IgE amount in sera (IgE [2]; 2 mg/kg orally once a day): 148.1 ± 72.0 µg/mL
IgE amount in sera (IgE [2]; 2 mg/kg orally once a day, listed as prednisolone): 148.1 µg/mL
